Results on 20 compounds are retold here after US20150057246A1, “SILYL-CONTAINING HETEROCYCLIC COMPOUNDS AND METHODS OF USE THEREOF FOR THE TREATMENT OF VIRAL DISEASES” (priority 2012, published 2015).

The structures appear in SMILES notation. Like-named read-outs stand apart in the source and are kept apart here. Some results are limits rather than exact numbers.

Assay [1] has as its system HCV 1a replicon. Nature of the assay: Cell-based HCV replicon assay (TaqMan), genotype 1a replicon. The settings on record: HCV genotype 1a replicon cells, replicon RNA by real time PCR, day 3, EC90 = concentration for ΔCT=3.2 over baseline. Summed up:
(§1)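 Replicon cells seeded at 5000 cells/well with compound as 10 serial 2-fold dilutions (top 250 μM to 1 μM), 0.5% DMSO, 5% FBS, 3 days. NS5B replicon RNA quantified by multiplex TaqMan RT-PCR against GAPDH. EC50 = concentration giving ΔCT=1 over baseline; EC90 = ΔCT=3.2, from sigmoid fit.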

For assay [2], the system named is HCV 1b replicon. Briefly: Cell-based HCV replicon assay (TaqMan), genotype 1b replicon. To be noted: HCV genotype 1b replicon cells, replicon RNA by real time PCR, day 3, EC90 = concentration for ΔCT=3.2 over baseline. As to the method:
Measurement of inhibition by compounds of the present invention was performed using the HCV replicon system. Several different replicons encoding different HCV genotypes or mutations were used. In addition, potency measurements were made using different formats of the replicon assay, including different ways of measurements and different plating formats. See Jan M. Vrolijk et al., A replicons-based bioassay for the measurement of interferons in patients with chronic hepatitis C, 110 J. VIROLOGICAL METHODS 201 (2003); Steven S. Carroll et al., Inhibition of Hepatitis C Virus RNA Replication by 2′-Modified Nucleoside Analogs, 278(14) J. BIOLOGICAL CHEMISTRY 11979 (2003). However, the underlying principles are common to all of these determinations, and are outlined below.
TaqMan®-Based Assay Protocol:
Compounds of the present invention were assayed for cell-based anti-HCV activity using the following protocol. Replicon cells were seeded at 5000 cells/well in 96-well collagen I-coated Nunc plates in the presence of the test compound. Various concentrations of test compound, typically in 10 serial 2-fold dilutions, were added to the assay mixture, with the starting concentration ranging from 250 μM to 1 μM. The final concentration of DMSO was 0.5%, fetal bovine serum was 5%, in the assay media. Cells were harvested on day 3 by the addition of 1× cell lysis buffer (Ambion cat #8721). The replicon RNA level was measured using real time PCR (TaqMan® assay). The amplicon was located in 5B. The PCR primers were: 5B.2F, ATGGACAGGCGCCCTGA (SEQ. ID NO. 1); 5B.2R, […] (SEQ. ID NO. 2); the probe sequence was FAM-labeled CACGCCATGCGCTGCGG (SEQ. ID NO. 3). GAPDH RNA was used as endogenous control and was amplified in the same reaction as NS5B (multiplex PCR) using primers and VIC-labeled probe recommended by the manufacturer (PE Applied Biosystem). The real-time […] reactions were run on ABI PRISM 7900HT Sequence Detection System using the following program: 48° C. for 30 minutes, 95° C. for 10 minutes, 40 cycles of 95° C. for 15 sec, 60° C. for 1 minute. The ΔCT values (CT5B-CTGAPDH) were plotted against the concentration of test compound and fitted to the sigmoid dose-response model using XLfit4 (MDL). EC50 was defined as the concentration of inhibitor necessary to achieve ΔCT=1 over the projected baseline; EC90 the concentration necessary to achieve ΔCT=3.2 over the baseline. Alternatively, to quantitate the absolute amount of replicon RNA, a standard curve was established by including serially diluted T7 transcripts of replicon RNA in the Taqman assay. All TaqMan® reagents were from PE Applied Biosystems. Such an assay procedure was described in detail in e.g. Malcolm et al., Antimicrobial Agents and Chemotherapy 50: 1013-1020 (2006).
HCV replicon EC50 assay data for various replicons and mutants was calculated for selected compounds of the present invention using this method and is provided in the tables above herein.
A general note: In antiviral work, replicon cells carry a viral genome segment that copies itself.

The subject of assay [3] is HCV 2b replicon. Briefly: Cell-based HCV replicon assay (TaqMan), genotype 2b replicon. To be noted: Hepatitis C virus, 72 h, read-out: 2b EC90, HCV genotype 2b replicon cells, replicon RNA by real time PCR, day 3; EC90 = concentration for ΔCT=3.2 over baseline. In short, it runs like this: as §1
The subject of assay [4] is HCV 1a Y93H replicon. Nature of the assay: Cell-based HCV replicon assay (TaqMan), 1a Y93H mutant replicon. To be noted: EC90 = concentration for ΔCT=3.2 over baseline. Summed up:
as §1

The mark [5] stands for this setting: Hepatitis C virus, 72 h, read-out: 1a Y93H EC90, HCV 1a Y93H mutant replicon cells, replicon RNA by real time PCR, day 3.
The mark [6] stands for this setting: read-out: 1a Y93H EC90, HCV 1a Y93H mutant replicon cells, replicon RNA by real time PCR, day 3.

In general, EC90 refers to the point of the concentration-response curve where the effect stands at 90%. As to `COC(=O)N[C@H](C(=O)N1CCC[C@H]1c1ncc(-c2ccc(-c3ccc4c(ccc5nc([C@@H]6C[Si](C)(C)CN6C(=O)[C@@H](NC(=O)OC)C6CCCCC6)[nH]c54)c3)cc2)[nH]1)C(C)C` [Compound 67], the EC90 is 0.5 nM in assay [1] (Hepatitis C virus, 72 h); 0.02 nM in assay [2] (Hepatitis C virus, 72 h); 129 nM in assay [3]; above 1000 nM in assay [4] (setting [5]).

As to `COC(=O)N[C@H](C(=O)N1C[Si](C)(C)C[C@H]1c1nc2ccc3cc(-c4ccc(-c5cnc([C@@H]6C[C@H]7C[C@H]7N6C(=O)[C@@H](NC(=O)OC)C(C)C)[nH]5)cc4)ccc3c2[nH]1)C(C)C` [Compound 12], the EC90 was 0.006 nM in assay [1], 0.001 nM in assay [2] and above 100 nM in assay [4] (setting [6]).

In the case of `COC(=O)N[C@@H](CC1CC1)C(=O)N1C[Si](C)(C)C[C@H]1c1nc2ccc3cc(-c4ccc(-c5cnc([C@@H]6CCCN6C(=O)[C@@H](NC(=O)OC)C(C)C)[nH]5)cc4)ccc3c2[nH]1` [Compound 77], the EC90 was 0.56 nM in assay [1] (Hepatitis C virus, 72 h); 0.03 nM in assay [2] (Hepatitis C virus, 72 h); 221 nM in assay [3]; above 1000 nM in assay [4] (setting [5]).

For the compound `COC(=O)N[C@H](C(=O)N1CCC[C@H]1c1ncc(-c2ccc(-c3ccc4c(ccc5nc([C@@H]6C[Si](C)(C)CN6C(=O)[C@@H](NC(=O)OC)C6CCOCC6)[nH]c54)c3)cc2)[nH]1)C(C)C` [Compound 69], the EC90 in assay [1] (Hepatitis C virus, 72 h) was 0.33 nM; in assay [2] (Hepatitis C virus, 72 h) it was 0.05 nM; in assay [3] it was 19 nM; in assay [4] (setting [5]), 118 nM.

Regarding `COC(=O)N[C@H](C(=O)N1CC(F)(F)C[C@H]1c1nc2ccc3cc(-c4ccc5c(ccc6nc([C@@H]7C[Si](C)(C)CN7C(=O)[C@@H](NC(=O)OC)C(C)C)[nH]c65)c4)ccc3c2[nH]1)C(C)C` [Compound 9], the EC90 in assay [1] (Hepatitis C virus, 72 h) was 0.02 nM; in assay [2] (Hepatitis C virus, 72 h), 0.007 nM; in assay [4] (setting [5]), 169 nM.

On to `COC(=O)N[C@H](C(=O)N1C[Si](C)(C)C[C@H]1c1nc2ccc3cc(-c4ccc(-c5cnc([C@@H]6[C@H]7CC[C@H](C7)N6C(=O)[C@@H](NC(=O)OC)C(C)C)[nH]5)cc4)ccc3c2[nH]1)C(C)C` [Compound 6], for which the EC90 in assay [1] (Hepatitis C virus, 72 h) is 0.17 nM; in assay [2] (Hepatitis C virus, 72 h), 0.02 nM; in assay [4] (setting [5]), 404 nM.

Regarding `COC(=O)N[C@H](C(=O)N1CCC[C@H]1c1ncc(-c2ccc(-c3ccc4c(ccc5nc([C@@H]6C[Si](C)(C)CN6C(=O)[C@@H](NC(=O)OC)C(C)C)[nH]c54)c3)cc2)[nH]1)C(C)C` [Compound 5], the EC90 was 0.012 nM in assay [1] (Hepatitis C virus, 72 h); 0.006 nM in assay [2] (Hepatitis C virus, 72 h); 181 nM in assay [4] (setting [5]).

For `COC(=O)N[C@@H](C(=O)N1CCC[C@@H]1c1ncc(-c2ccc3cc(-c4ccc5c(ccc6nc([C@H]7C[Si](C)(C)CN7C(=O)OC(C)(C)C)[nH]c65)c4)ccc3c2)[nH]1)C(C)C` [Compound 116], the EC90 in assay [1] (Hepatitis C virus, 72 h) was above 1 nM; in assay [2] (Hepatitis C virus, 72 h) it was above 1 nM; in assay [3], above 100 nM; in assay [4] (setting [5]) it was above 100 nM.

As to `COC(=O)N[C@H](C(=O)N1C[Si](C)(C)C[C@H]1c1nc2ccc3cc(-c4ccc(-c5cnc([C@@H]6C[C@H]7C[C@H]7N6C(=O)[C@@H](NC(=O)OC)C(C)C)[nH]5)cc4)ccc3c2[nH]1)C(C)C` [Compound 105], the EC90 in assay [1] is 0.26 nM; in assay [2], 0.02 nM; in assay [3], 301 nM; in assay [4] (setting [6]), 605 nM.

As to `COC(=O)N[C@H](C(=O)N1C[C@H](F)C[C@H]1c1ncc(-c2ccc(-c3ccc4c(ccc5nc([C@@H]6C[Si](C)(C)CN6C(=O)[C@@H](NC(=O)OC)C(C)C)[nH]c54)c3)cc2)[nH]1)C(C)C` [Compound 10], the EC90 turned out to be 0.15 nM in assay [1] (Hepatitis C virus, 72 h); 0.009 nM in assay [2] (Hepatitis C virus, 72 h); 92 nM in assay [4] (setting [5]).

As to `COC(=O)N[C@@H](CSC)C(=O)N1C[Si](C)(C)C[C@H]1c1nc2ccc3cc(-c4ccc(-c5cnc([C@@H]6CCCN6C(=O)[C@@H](NC(=O)OC)C(C)C)[nH]5)cc4)ccc3c2[nH]1` [Compound 76], the EC90 in assay [1] (Hepatitis C virus, 72 h) is 0.25 nM; in assay [2] (Hepatitis C virus, 72 h), 0.03 nM; in assay [3], 108 nM; in assay [4] (setting [5]), 984 nM.

`COC(=O)N[C@H](C(=O)N1CC(F)(F)C[C@H]1c1ncc(-c2ccc(-c3ccc4c(ccc5nc([C@@H]6C[Si](C)(C)CN6C(=O)[C@@H](NC(=O)OC)C(C)C)[nH]c54)c3)cc2)[nH]1)C(C)C` [Compound 7]: the EC90 in assay [1] (Hepatitis C virus, 72 h) came out at 0.047 nM; in assay [2] (Hepatitis C virus, 72 h), 0.005 nM; in assay [4] (setting [5]), 172 nM.

As to `COC(=O)N[C@H](C(=O)N1C[Si](C)(C)C[C@H]1c1ncc(-c2ccc(-c3ccc4c(ccc5[nH]c([C@@H]6[C@H]7CC[C@H](C7)N6C(=O)[C@@H](NC(=O)OC)C(C)C)nc54)c3)cc2)[nH]1)C(C)C` [Compound 4], the EC90 in assay [1] (Hepatitis C virus, 72 h) worked out at 0.097 nM; in assay [2] (Hepatitis C virus, 72 h), 0.005 nM; in assay [4] (setting [5]), 333 nM.

As for `COC(=O)N[C@H](C(=O)N1C[C@H](O)C[C@H]1c1ncc(-c2ccc(-c3ccc4c(ccc5nc([C@@H]6C[Si](C)(C)CN6C(=O)[C@@H](NC(=O)OC)C(C)C)[nH]c54)c3)cc2)[nH]1)C(C)C` [Compound 11], the EC90 in assay [1] (Hepatitis C virus, 72 h) is 0.26 nM; in assay [2] (Hepatitis C virus, 72 h), 0.008 nM; in assay [4] (setting [5]), 152 nM.

`COC(=O)N[C@H](C(=O)N1CCC[C@H]1c1ncc(-c2ccc3cc(-c4ccc5c(ccc6nc([C@@H]7C[Si](C)(C)CN7C(=O)[C@@H](NC(=O)OC)C7CCOCC7)[nH]c65)c4)ccc3c2)[nH]1)C1CCOCC1` [Compound 113]: the EC90 in assay [1] (Hepatitis C virus, 72 h) is 0.026 nM; in assay [2] (Hepatitis C virus, 72 h), above 1 nM; in assay [3], 97 nM.

Regarding `COC(=O)N[C@H](C(=O)N1C[Si](C)(C)C[C@H]1c1ncc(-c2ccc(-c3ccc4c(ccc5nc([C@@H]6CCCN6C(=O)[C@@H](NC(=O)OC)C(C)C)[nH]c54)c3)cc2)[nH]1)C(C)C` [Compound 3], the EC90 is 0.031 nM in assay [1] (Hepatitis C virus, 72 h); 0.006 nM in assay [2] (Hepatitis C virus, 72 h); 280 nM in assay [4] (setting [5]).

Turning to `COC(=O)N[C@@H](Cc1cccc(O)c1)C(=O)N1C[Si](C)(C)C[C@H]1c1nc2ccc3cc(-c4ccc(-c5cnc([C@@H]6CCCN6C(=O)[C@@H](NC(=O)OC)C(C)C)[nH]5)cc4)ccc3c2[nH]1` [Compound 61], the EC90 is 0.33 nM in assay [1] (Hepatitis C virus, 72 h); 37 nM in assay [3]; above 1000 nM in assay [4] (setting [5]).

As to `COC(=O)N[C@@H](C(=O)N1C[Si](C)(C)C[C@H]1c1ncc(-c2ccc(-c3ccc4c(ccc5nc([C@@H]6CCCN6C(=O)[C@H](NC(=O)OC)C6CC6)[nH]c54)c3)cc2)[nH]1)C1CC1` [Compound 50], the EC90 was above 1000 nM in assay [1] (Hepatitis C virus, 72 h); above 1000 nM in assay [3]; above 1000 nM in assay [4] (setting [5]).

Regarding `COC(=O)N[C@H](C(=O)N1CCC[C@H]1c1ncc(-c2ccc(-c3ccc4c(ccc5nc([C@@H]6C[Si](C)(C)CN6C(=O)[C@@H]6COCCN6C(=O)OC)[nH]c54)c3)cc2)[nH]1)C(C)C` [Compound 64], the EC90 was 1.6 nM in assay [1] (Hepatitis C virus, 72 h); 273 nM in assay [3]; above 1000 nM in assay [4] (setting [5]).

With `COC(=O)N[C@H](C(=O)N1C[Si](C)(C)C[C@H]1c1ncc(-c2ccc(-c3ccc4c(ccc5nc([C@@H]6CC(F)(F)CN6C(=O)[C@@H](NC(=O)OC)C(C)C)[nH]c54)c3)cc2)[nH]1)C(C)C` [Compound 8], the EC90 amounted to 0.042 nM in assay [1] (Hepatitis C virus, 72 h); 0.02 nM in assay [2] (Hepatitis C virus, 72 h); 65 nM in assay [4] (setting [5]).
